Experimental findings from patent US20160206608A1 (Pfizer Inc., priority 2011, published 2016) are described below.

One experiment deals with HCC78 human NSCLC cells. As to the kind of experiment: Western blot of cleaved caspase-3 (apoptosis) in HCC78 cells. To be noted: 3-hour drug treatment. On the technique in general: In western blotting, separated proteins are transferred to a membrane and probed.
Experiment [1] has as its system 3T3-ROS engineered tumor models (CD74-ROS, SLC34A2-ROS (L), SLC34A2-ROS (S), FIG-ROS (L), FIG-ROS (S)). As to the kind of experiment: Panel of ROS fusion engineered 3T3-ROS xenograft tumor models. To be noted: PO BID, all five models, nude mice.
Experiment [2] relates to SLC34A2-ROS dependent signaling (ROS, SHP2, STAT3, AKT, ERK1/2) in HCC78 cells. As to the kind of experiment: Immunoblot of ROS mediated signal transduction in HCC78 cells. To be noted: 3 hours of drug treatment.

Take `C[C@@H](Oc1cc(-c2cnn(C3CCNCC3)c2)cnc1N)c1c(Cl)ccc(F)c1Cl` [crizotinib, 3-[(R)-1-(2,6-dichloro-3-fluoro-phenyl)-ethoxy]-5-(1-piperidin-4-yl-1H-pyrazol-4-yl)-pyridin-2-ylamine]: the “induction of activated caspase-3 levels” value in the experiment with HCC78 human NSCLC cells is “significant dose-dependent induction”. Further, the “cytoreductive effect in 3T3-ROS engineered tumor models” value in experiment [1] is recorded as “significant cytoreductive effects”. Also, in experiment [2], the “inhibition of ROS phosphorylation (activation loop) and downstream SHP2, STAT3, AKT and ERK1/2” value was “dose dependently inhibited”.
